US20210283139A1, “BIFUNCTIONAL MOLECULES FOR TARGETING UCHL5” (AMPHISTA THERAPEUTICS LTD, priority 2018, published 2021)

Legend:
Format in all cases: cell-based
[1] = biological target: T1, Brd4 (Homo sapiens, UniProt O60885); experiment: Negative SAR: Brd4 immunoblot in HEK293 cells, active vs negative control; conditions: HEK293, 1 μM, 6 h, three independent treatments
T1 construct: endogenous in cells; host or cells: HEK293, HAP1, MV4-11
Protocol: (§1) Immunoblotting. proteins were separated by SDS-PAGE on NuPage 4-12% Bis-Tris gels, followed by transfer to Amersham Protran 0.45 NC nitrocellulose membrane (GE Healthcare) using wet transfer. Membranes were blocked using 5% w/v milk in Tris-buffered saline (TBS) with 0.1% Tween-20. Blots were probed (overnight at 4° C.) using anti-Brd2 (Abcam ab139690, 1:2,000 dilution), anti-Brd3 (Abcam ab50818, 1:500 dilution), and anti-Brd4 (Abcam ab128874, 1:1,000 dilution) primary antibodies, as appropriate. The next day, blots were washed with TBST and incubated (1 hr at RT) with anti-Tubulin hFAB-rhodamine (BioRad, 12004166) primary antibody, and either anti-rabbit IRDye 800CW (Licor 1:10,000 dilution) or anti-mouse IRDye 800CW (Licor 1:10,000 dilution) secondary antibody. Blots were developed using a Bio-Rad ChemiDoc MP Imaging System, and band quantification was performed using Image Studio software (LiCor). Band intensities were normalized to the tubulin loading control and reported as % of the average 0.1% DMSO vehicle intensity. Degradation data was plotted and analysed using Prism (Graphpad, version 8).
HEK293 (1×10^6) cells incubated with DMSO, 1 μM 05IB11 or 1 μM 05IB6 for 6 h with a final DMSO concentration of 0.1% v/v. Cells from three independent treatments (n=3) were lysed with RIPA buffer and immunoblotted for Brd4 and β-tubulin.

[2] = biological target: T1, Brd4; experiment: Proteasome dependency of Brd4 degradation in HEK293 cells (bortezomib pre-treatment); conditions: 6 h
Protocol: as §1
(§2) HEK293 (1×10^6) cells were seeded in standard 6-well plates (2 mL medium) overnight before pre-treatment with 10 μM bortezomib. After a 0.5 h pre-incubation time, cells were subsequently treated with vehicle, 1 μM MZ1 or 1 μM 05IB6, yielding a final overall DMSO concentration of 0.2% v/v. After 6 h incubation, cells were washed with DPBS (Gibco) and lysed using 85 μL RIPA buffer (Sigma-Aldrich) supplemented with cOmplete Mini EDTA-free protease inhibitor cocktail (Roche) and benzonase. Lysates were clarified by centrifugation (20,000 g, 10 min, 4° C.) and the total protein content of the supernatant was quantified using a Bradford colorimetric assay. Samples were prepared using equal amounts of total protein and LDS sample buffer (Invitrogen).

[3] = biological target: T1, Brd4; experiment: Mechanistic evaluation of Brd4 degradation in HEK293 cells (degrasyn or I-BET726 pre-treatment); conditions: 6 h
Protocol: as §1
as §2, with “with inhibitors (5” for “with 10”, “μM degrasyn or 1 μM I-BET726).” for “μM bortezomib.”, “vehicle, 0.1” for “vehicle, 1”, “or 0.1” for “or 1”, “μM 05IB9,” for “μM 05IB6,”

[4] = biological target: T1, Brd4; experiment: Immunoblot in MV4-11 cells; conditions: MV4-11, 6 h, increasing concentrations
Protocol: (§3) MV4-11 (0.7×10^6 cells/mL) were seeded in 10 cm plates (10 mL DMEM supplemented with 10% FBS and L-glutamine) overnight before treatment with compounds at the desired concentration and with a final DMSO concentration of 0.1% v/v. After 6 h incubation time, cells were washed 2× with DPBS (Gibco) and lysed using 85 μL RIPA buffer (Sigma-Aldrich) supplemented with cOmplete Mini EDTA-free protease inhibitor cocktail (Roche) and benzonase. Lysates were clarified by centrifugation (20,000 g, 10 min, 4° C.) and the total protein content of the supernatant was quantified using a Bradford colorimetric assay. Samples were prepared using equal amounts of total protein and LDS sample buffer (Invitrogen). For immunoblot analysis, the following antibodies were used: anti-Brd2 (ab139690, 1:2,000 dilution), anti-Brd3 (ab50818, 1:500 dilution), anti-Brd4 (ab128874, 1:1,000 dilution), anti-c-myc (ab32072, 1:1,000 dilution), anti- total PARP (BD Bioscience #556494; 1:1,000 dilution), anti-cleaved PARP (CST-9541T, 1:1,000 dilution), and anti-Tubulin hFAB-rhodamine (BioRad, 12004166, 1:10,000 dilution).

[5] = tested on: c-MYC; experiment: Immunoblot of c-MYC levels in MV4-11 cells; conditions: MV4-11, 6 h
Protocol: as §3

[6] = tested on: PARP; experiment: Immunoblot of total and cleaved PARP in MV4-11 cells; conditions: MV4-11, 6 h
Protocol: as §3

[7] = biological target: Brd2 (Homo sapiens, UniProt P25440); experiment: Immunoblot in MV4-11 cells; parameters: endogenous in cells; host or cells: MV4-11; conditions: MV4-11, 6 h, increasing concentrations
Chain of Brd2 (P25440 whole entry): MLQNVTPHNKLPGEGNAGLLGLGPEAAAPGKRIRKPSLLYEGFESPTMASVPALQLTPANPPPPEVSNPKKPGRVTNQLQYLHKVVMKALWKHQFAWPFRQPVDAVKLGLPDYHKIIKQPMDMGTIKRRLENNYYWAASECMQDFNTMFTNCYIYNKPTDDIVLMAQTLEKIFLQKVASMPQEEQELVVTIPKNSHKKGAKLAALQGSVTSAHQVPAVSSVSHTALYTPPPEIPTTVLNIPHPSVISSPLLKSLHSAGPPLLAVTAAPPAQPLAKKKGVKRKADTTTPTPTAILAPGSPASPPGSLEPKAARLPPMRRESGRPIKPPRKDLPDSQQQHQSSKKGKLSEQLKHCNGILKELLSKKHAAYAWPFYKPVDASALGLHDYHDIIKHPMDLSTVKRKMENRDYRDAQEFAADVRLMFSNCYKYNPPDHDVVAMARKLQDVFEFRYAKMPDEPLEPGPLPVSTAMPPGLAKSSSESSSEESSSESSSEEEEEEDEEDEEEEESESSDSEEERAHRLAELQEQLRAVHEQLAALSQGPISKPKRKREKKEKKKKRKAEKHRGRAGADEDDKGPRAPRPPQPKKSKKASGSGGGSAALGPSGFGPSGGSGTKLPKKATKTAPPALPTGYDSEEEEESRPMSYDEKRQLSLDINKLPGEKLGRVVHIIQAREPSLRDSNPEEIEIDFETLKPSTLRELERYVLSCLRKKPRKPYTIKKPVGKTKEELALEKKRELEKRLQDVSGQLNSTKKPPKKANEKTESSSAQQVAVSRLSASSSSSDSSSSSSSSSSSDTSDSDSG
Protocol: as §3

[8] = biological target: Brd3 (Homo sapiens, UniProt Q15059); experiment: Immunoblot in MV4-11 cells; parameters: endogenous in cells; host or cells: MV4-11; conditions: MV4-11, 6 h, increasing concentrations
Chain of Brd3 (Q15059 whole entry): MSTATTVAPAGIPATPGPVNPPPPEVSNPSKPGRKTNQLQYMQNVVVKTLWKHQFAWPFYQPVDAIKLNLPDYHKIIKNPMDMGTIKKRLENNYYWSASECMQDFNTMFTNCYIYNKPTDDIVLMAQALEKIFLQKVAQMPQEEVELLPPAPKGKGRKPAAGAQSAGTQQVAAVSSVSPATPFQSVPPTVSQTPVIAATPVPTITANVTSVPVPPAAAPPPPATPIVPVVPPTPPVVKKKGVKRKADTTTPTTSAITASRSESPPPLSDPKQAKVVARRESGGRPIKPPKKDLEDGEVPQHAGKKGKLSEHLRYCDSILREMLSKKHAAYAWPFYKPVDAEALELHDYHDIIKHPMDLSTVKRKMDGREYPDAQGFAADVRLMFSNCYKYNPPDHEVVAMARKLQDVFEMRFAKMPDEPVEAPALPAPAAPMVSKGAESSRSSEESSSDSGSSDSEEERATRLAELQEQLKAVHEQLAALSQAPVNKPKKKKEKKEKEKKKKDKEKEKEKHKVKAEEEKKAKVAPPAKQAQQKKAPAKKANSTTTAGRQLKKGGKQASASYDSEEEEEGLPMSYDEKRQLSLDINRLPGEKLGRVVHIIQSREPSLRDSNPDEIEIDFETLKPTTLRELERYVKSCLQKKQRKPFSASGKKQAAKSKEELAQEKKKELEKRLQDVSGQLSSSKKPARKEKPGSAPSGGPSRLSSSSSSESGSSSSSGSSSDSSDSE
Protocol: as §3

Brd4 levels [1]	Brd4 degradation in the presence of bortezomib ([2]; HEK293, 1 μM compound, 0.5 h pre-treatment with 10 μM bortezomib)	Brd4 protein levels ([2]; HEK293, 1 μM)	Brd4 protein levels ([3]; HEK293, 0.1 μM)	Brd4 levels [4]	Brd2 levels [7]	Brd3 levels [8]	SMILES	Brd4 degradation in the presence of degrasyn or I-BET726 ([3]; HEK293, 0.1 μM compound, 0.5 h pre-treatment with 5 μM degrasyn or 1 μM I-BET726)	decrease in c-MYC compared with inhibitor and negative control [5]	c-MYC levels ([5]; increasing concentrations)	increase in C-PARP compared with inhibitor and negative control [6]	cleaved PARP ([6]; increasing concentrations)	total PARP levels ([6]; increasing concentrations)
significant depletion	completely blocked	depletion					CCCC(NC(=O)/C(C#N)=C/c1cccc(Br)n1)c1ccc(OCCOCCOCCOCCOCCOCCOCCNC(=O)c2ccc(-c3ccc4c(c3)[C@H](Nc3ccc(Cl)cc3)C[C@H](C)N4C(C)=O)cc2)cc1 (stereo partly shown) [Example 05IB6]						
			depletion	depletion	depletion	depletion	CCCC(NC(=O)/C(C#N)=C/c1nccs1)c1ccc(OCCOCCOCCOCCOCCOCCOCCNC(=O)c2ccc(-c3ccc4c(c3)[C@H](Nc3ccc(Cl)cc3)C[C@H](C)N4C(C)=O)cc2)cc1 (stereo partly shown) [Example 05IB9]	completely blocked in the presence of either degrasyn or I-BET726	greater than inhibitor (I-BET726) alone and the negative control (05IB11)	depletion	greater than inhibitor (I-BET726) alone and the negative control (05IB11)	increase	depletion
